# Data from patent US6475507B1, “Sustained release compositions and the process for their preparation” (priority 1997, dated 2002).
# Assay: Specific surface area of the active substance by the BET method
# Format: physicochemical
# Settings: peptide salt after lyophilization (or starting material)
# Method: For all these examples, the inherent viscosities (IV) were measured by the conventional methods of flow time measurement, as described for example in “Pharmacopoée Européenne”, 1997, pages 17-18 (capillary tube method). Unless stated otherwise, these viscosities have been measured in chloroform at a concentration of 0.1% at 25° C. or in hexaisofluoropropanol at a concentration of 0.5% at 30° C. Where measured, the specific surface area of the active substance was determined by the so-called BET method (absorption of a nitrogen monolayer on the active substance), a method well known to a person skilled in the art.
row,Molecule,Specific surface area
1,"CC(C)[C@@H]1NC(=O)[C@H](CCCCN)NC(=O)[C@@H](Cc2c[nH]c3ccccc23)NC(=O)[C@H](Cc2ccc(O)cc2)NC(=O)[C@@H](NC(=O)[C@H](N)Cc2ccc3ccccc3c2)CSSC[C@@H](C(=O)N[C@H](C(N)=O)[C@@H](C)O)NC1=O [Example 13, lanreotide acetate]",36 m^2/g
2,"CC(C)[C@@H]1NC(=O)[C@H](CCCCN)NC(=O)[C@@H](Cc2c[nH]c3ccccc23)NC(=O)[C@H](Cc2ccc(O)cc2)NC(=O)[C@@H](NC(=O)[C@H](N)Cc2ccc3ccccc3c2)CSSC[C@@H](C(=O)N[C@H](C(N)=O)[C@@H](C)O)NC1=O [Example 14, lanreotide acetate]",43 m^2/g
3,"CC(C)[C@@H]1NC(=O)[C@H](CCCCN)NC(=O)[C@@H](Cc2c[nH]c3ccccc23)NC(=O)[C@H](Cc2ccc(O)cc2)NC(=O)[C@@H](NC(=O)[C@H](N)Cc2ccc3ccccc3c2)CSSC[C@@H](C(=O)N[C@H](C(N)=O)[C@@H](C)O)NC1=O [modified lanreotide acetate, lanreotide acetate]",4.4 m^2/g
4,triptorelin acetate [modified triptorelin acetate],4.7 m^2/g
5,"triptorelin acetate [unmodified triptorelin acetate, reference compound]",0.8 m^2/g
